Species on record: Rattus norvegicus
Test: DrugMatrix - Regimen: Daily Repeat
Type: toxicity, organism-based, Sprague-Dawley
Parameters: regimen Daily Repeat, gender Male, age 6-8 weeks
Settings: in vivo, vehicle 100 % SALINE; for ABSOLUTE MONOCYTE / ABSOLUTE SEGMENTED NEUTROPHIL / BASOPHIL / EOSINOPHIL / ERYTHROCYTE COUNT / HEMATOCRIT / HEMOGLOBIN / LEUKOCYTE COUNT / LYMPHOCYTE / MEAN CORPUSCULAR HEMOGLOBIN / MEAN CORPUSCULAR HEMOGLOBIN CONCENTRATION / MEAN CORPUSCULAR VOLUME / MONOCYTE / NEUTROPHIL / PLATELET COUNT / ABSOLUTE BASOPHIL / ABSOLUTE EOSINOPHIL / ABSOLUTE LYMPHOCYTE: tissue Blood; for ALANINE AMINOTRANSFERASE / ALBUMIN / ALKALINE PHOSPHATASE / ASPARTATE AMINOTRANSFERASE / BLOOD UREA NITROGEN / CHLORIDE / CHOLESTEROL / CREATINE PHOSPHOKINASE / CREATININE / GLUCOSE / LACTATE DEHYDROGENASE / LIPASE / PHOSPHORUS / POTASSIUM / SODIUM / TOTAL BILIRUBIN / TOTAL PROTEIN / URIC ACID: tissue Plasma
[1] = ip, 160 mg/kg, 120 h, route intraperitoneal, dose level High, time 5 day
[2] = ip, 160 mg/kg, […], route intraperitoneal, dose level High, time 14 day
[3] = ip, 160 mg/kg, […], route intraperitoneal, dose level High, time 28 day
[4] = iv, 0 mg/kg, 72 h, dose level Control, time 3 day

NCC[C@H](O)C(=O)N[C@@H]1C[C@H](N)[C@@H](O[C@H]2O[C@H](CN)[C@@H](O)[C@H](O)[C@H]2O)[C@H](O)[C@H]1O[C@H]1O[C@H](CO)[C@@H](O)[C@H](N)[C@H]1O [AMIKACIN]
ABSOLUTE MONOCYTE [1]: 130 cells/µL
ABSOLUTE SEGMENTED NEUTROPHIL [1]: 830 cells/µL
BASOPHIL [1]: 0.52%
EOSINOPHIL [1]: 0.92%
ERYTHROCYTE COUNT [1]: 7.72 x10E6/uL
HEMATOCRIT [1]: 47.66%
HEMOGLOBIN [1]: 15.46 G/DL
LEUKOCYTE COUNT [1]: 8.36 x10E3/uL
LYMPHOCYTE [1]: 86.2%
MEAN CORPUSCULAR HEMOGLOBIN [1]: 20.02 pg
MEAN CORPUSCULAR HEMOGLOBIN CONCENTRATION [1]: 32.44 G/DL
MEAN CORPUSCULAR VOLUME [1]: 61.7 fL
MONOCYTE [1]: 1.62%
NEUTROPHIL [1]: 10.4%
PLATELET COUNT [1]: 1365.6 x10E3/uL
ALANINE AMINOTRANSFERASE [1]: 28.8 u/L
ALBUMIN [1]: 3.56 G/DL
ALKALINE PHOSPHATASE [1]: 209.4 u/L
ASPARTATE AMINOTRANSFERASE [1]: 80.6 u/L
BLOOD UREA NITROGEN [1]: 14.6 mg/dL
CHLORIDE [1]: 107.2 MEQ/L
CHOLESTEROL [1]: 62.4 mg/dL
CREATINE PHOSPHOKINASE [1]: 231.2 u/L
CREATININE [1]: 0.56 mg/dL
GLUCOSE [1]: 136.6 mg/dL
LACTATE DEHYDROGENASE [1]: 109.8 u/L
LIPASE [1]: 23.8 u/L
PHOSPHORUS [1]: 11.74 mg/dL
POTASSIUM [1]: 5.46 MEQ/L
SODIUM [1]: 147 MEQ/L
TOTAL BILIRUBIN [1]: 0.22 mg/dL
TOTAL PROTEIN [1]: 6.1 G/DL
URIC ACID [1]: 1.12 mg/dL
ABSOLUTE BASOPHIL [2]: 120 cells/µL
ABSOLUTE EOSINOPHIL [2]: 120 cells/µL
ABSOLUTE LYMPHOCYTE [2]: 10400 cells/µL
ABSOLUTE MONOCYTE [2]: 290 cells/µL
ABSOLUTE SEGMENTED NEUTROPHIL [2]: 1840 cells/µL
BASOPHIL [2]: 0.88%
EOSINOPHIL [2]: 0.88%
ERYTHROCYTE COUNT [2]: 7.68 x10E6/uL
HEMATOCRIT [2]: 45.32%
HEMOGLOBIN [2]: 14.88 G/DL
LEUKOCYTE COUNT [2]: 12.88 x10E3/uL
LYMPHOCYTE [2]: 80.34%
MEAN CORPUSCULAR HEMOGLOBIN [2]: 19.4 pg
MEAN CORPUSCULAR HEMOGLOBIN CONCENTRATION [2]: 32.88 G/DL
MEAN CORPUSCULAR VOLUME [2]: 59.02 fL
MONOCYTE [2]: 2.26%
NEUTROPHIL [2]: 15.14%
PLATELET COUNT [2]: 1513.4 x10E3/uL
ABSOLUTE BASOPHIL [3]: 97 cells/µL
ABSOLUTE EOSINOPHIL [3]: 87 cells/µL
ABSOLUTE LYMPHOCYTE [3]: 9100 cells/µL
ABSOLUTE MONOCYTE [3]: 180 cells/µL
ABSOLUTE SEGMENTED NEUTROPHIL [3]: 1340 cells/µL
BASOPHIL [3]: 0.88%
EOSINOPHIL [3]: 0.84%
ERYTHROCYTE COUNT [3]: 7.95 x10E6/uL
HEMATOCRIT [3]: 44.83%
HEMOGLOBIN [3]: 14.88 G/DL
LEUKOCYTE COUNT [3]: 10.86 x10E3/uL
LYMPHOCYTE [3]: 83.57%
MEAN CORPUSCULAR HEMOGLOBIN [3]: 18.72 pg
MEAN CORPUSCULAR HEMOGLOBIN CONCENTRATION [3]: 33.24 G/DL
MEAN CORPUSCULAR VOLUME [3]: 56.35 fL
MONOCYTE [3]: 1.64%
NEUTROPHIL [3]: 12.66%
PLATELET COUNT [3]: 1439.3 x10E3/uL
ALANINE AMINOTRANSFERASE [2]: 30.4 u/L
ALBUMIN [2]: 3.44 G/DL
ALKALINE PHOSPHATASE [2]: 190.6 u/L
ASPARTATE AMINOTRANSFERASE [2]: 79.6 u/L
BLOOD UREA NITROGEN [2]: 13 mg/dL
CHLORIDE [2]: 107.8 MEQ/L
CHOLESTEROL [2]: 70.8 mg/dL
CREATINE PHOSPHOKINASE [2]: 151.2 u/L
CREATININE [2]: 0.5 mg/dL
GLUCOSE [2]: 119.8 mg/dL
LACTATE DEHYDROGENASE [2]: 78.6 u/L
LIPASE [2]: 32 u/L
PHOSPHORUS [2]: 9.94 mg/dL
POTASSIUM [2]: 5.62 MEQ/L
SODIUM [2]: 150.6 MEQ/L
TOTAL BILIRUBIN [2]: 0.2 mg/dL
TOTAL PROTEIN [2]: 6.18 G/DL
URIC ACID [2]: 0.66 mg/dL
ALANINE AMINOTRANSFERASE [3]: 29.6 u/L
ALBUMIN [3]: 3.6 G/DL
ALKALINE PHOSPHATASE [3]: 128.89 u/L
ASPARTATE AMINOTRANSFERASE [3]: 84.7 u/L
BLOOD UREA NITROGEN [3]: 17.7 mg/dL
CHLORIDE [3]: 105.6 MEQ/L
CHOLESTEROL [3]: 62.1 mg/dL
CREATINE PHOSPHOKINASE [3]: 292.2 u/L
CREATININE [3]: 0.65 mg/dL
GLUCOSE [3]: 136.2 mg/dL
LACTATE DEHYDROGENASE [3]: 129.6 u/L
LIPASE [3]: 17.1 u/L
PHOSPHORUS [3]: 10.04 mg/dL
POTASSIUM [3]: 6.81 MEQ/L
SODIUM [3]: 152.5 MEQ/L
TOTAL BILIRUBIN [3]: 0.26 mg/dL
TOTAL PROTEIN [3]: 6.48 G/DL
URIC ACID [3]: 1.45 mg/dL
ABSOLUTE BASOPHIL [4]: 0 CELLS/uL
ABSOLUTE EOSINOPHIL [4]: 0 CELLS/uL
ABSOLUTE LYMPHOCYTE [4]: 7637.67 CELLS/uL
ABSOLUTE MONOCYTE [4]: 67.83 CELLS/uL
ABSOLUTE SEGMENTED NEUTROPHIL [4]: 661.17 CELLS/uL
BASOPHIL [4]: 0%

Source: ChEMBL document CHEMBL3885881, “DrugMatrix”
